For data set [1], the target named is T1, DNA gyrase (Escherichia coli) (UniProt P0AES6+P0AES4). Description: Inhibition of Escherichia coli DNA gyrase at 100 uM by fluorescence based assay relative to control. The class given is protein-complex assay.
Data set [2] has as its system Trypanosoma cruzi. Description: Antitrypanosomal activity against Trypanosoma cruzi amastigotes infected in African green monkey Vero cells incubated for 5 days by chlorophenol red-beta-D-galactoside based colorimetric analysis. The class given is functional, organism-based. The following applies: 120 h.
In data set [3] the test system is Plasmodium falciparum. Description: Antiplasmodial activity against Plasmodium falciparum HB3 infected in human erythrocytes assessed as reduction in parasite growth incubated for 48 hrs by PicoGreen DNA fluorescent dye. The class given is functional, organism-based. The note with it: HB3, 48 h.
For data set [4], the system named is Vero. As to the kind of experiment: Cytotoxicity against African green monkey Vero cells assessed as reduction in cell viability by MTT assay. The note with it: Chlorocebus sabaeus. In kind it is functional. In general terms: Tetrazolium assays rely on reduction of a dye to a coloured formazan, in cell work by metabolically active cells.
Data set [5] in a line: Selectivity index, ratio of CC50 for African green monkey Vero cells to IC50 for Plasmodium falciparum HB3 infected in human erythrocytes assessed as reduction in parasite growth. In kind it is toxicity, cell-based. The note with it: read-out: Ratio CC50/IC50.
Data set [6] deals with T1, DNA gyrase (Escherichia coli). Description: Inhibition of Escherichia coli DNA gyrase at 50 uM by fluorescence based assay relative to control. In kind it is protein-complex assay.
Data set [7] has as its system Hemozoin. As to the kind of experiment: Inhibition of beta-hematin formation in Plasmodium falciparum assessed as decrease in beta-hematin. On the set-up: scale not given: the % may be the effect or the level left.
The test system of data set [8] is Plasmodium falciparum. As to the kind of experiment: Induction of reactive oxygen species generation in schizont stage Plasmodium falciparum HB3 incubated for 3 hrs at 10 uM by CM-H2DCFDA dye based fluorescence assay relative to control. In kind it is functional, organism-based.
Data set [9] relates to Trypanosoma cruzi. Description: Antitrypanosomal activity against Trypanosoma cruzi amastigotes infected in African green monkey Vero cells incubated for 5 days at 10 ug/mL by chlorophenol red-beta-D-galactoside based colorimetric analysis relative to control. The class given is functional. The note with it: 120 h, time 5 day, read-out: GI.
Data set [10] can be described thus: Disruption of cell membrane integrity in red blood cells incubated for 3 hrs at 10 uM and measured by propidium iodide incorporation assay relative to control. The class given is ADME, cell membranes.
The test system of data set [11] is Erythrocyte. As to the kind of experiment: Hemolytic activity against red blood cells assessed as hemolysis at 10 uM incubated for 24 hrs by spectrophotometric analysis relative to control. In kind it is ADME, cell-based.
Data set [12] concerns Leishmania donovani. Description: Antileishmanial activity against Leishmania donovani axenic amastigotes at 10 ug/mL assessed as growth inhibition relative to control. The class given is functional. The following applies: read-out: GI.
Data set [13] concerns Plasmodium falciparum. As to the kind of experiment: Induction of apoptosis in schizont stage Plasmodium falciparum HB3 infected red blood cells assessed as caspase activity measured by FLICA reagent based fluorescence assay. The class given is functional, organism-based.
Data set [14] deals with Plasmodium falciparum HB3. As to the kind of experiment: Disruption of cell membrane integrity in schizont stage Plasmodium falciparum HB3 infected red blood cells incubated for 3 hrs at 10 uM and measured by propidium iodide incorporation assay relative to control. The class given is cell membranes.
For data set [15], the system named is MCF7. As to the kind of experiment: Growth inhibition of human MCF7 cells at 10 ug/mL relative to control. In kind it is functional. The following applies: read-out: GI.
Data set [16] has as its system Plasmodium falciparum. Description: […] activity in schizont stage Plasmodium falciparum HB3 assessed as reduction in mitochondrial membrane potential at 10 uM incubated for 20 mins and measured after 3 hrs by DiOC6-staining based fluorometry analysis relative to control. In kind it is functional, organism-based.
The target in data set [17] is T1, DNA gyrase (Escherichia coli). Description: Inhibition of Escherichia coli DNA gyrase at 10 uM by fluorescence based assay relative to control. In kind it is protein-complex assay.

Activity calls are given as the source filed them. No cut-off for these calls is given here.

As usually defined, the inhibition is the share of the control response that was lost under treatment. On to `CC/C(=C(\c1ccccc1)c1ccc(OCCN(C)C)cc1)c1ccccc1`, for which the inhibition entry in data set [1] is “Active”.
As a reminder, the IC50 is the point on the concentration scale where inhibition reaches its midpoint. `CCC[C@H]1C[C@H]2OC(=O)c3c(cc(O)c(O)c3OCc3ccc(C(F)(F)F)cc3)[C@H]2O1` returned an IC50 in data set [2] of 12.4 µM.
The CC50 is the concentration that lowers cell viability or growth by half. As to `CCC[C@H]1C[C@H]2OC(=O)c3c(cc(OC)c(OC)c3O)[C@H]2O1` [MONOCERIN], in [3], the IC50 came out at 1.13 µM. Besides, the half-maximal cytotoxic concentration (CC50) in data set [4] turned out to be 87.5 µM. The selectivity ratio in data set [5] stood at 77.
`COC(=O)CC[C@H]1C[C@H]2OC(=O)c3c(cc(OC)c(OC)c3O)[C@H]2O1`: in [3], the IC50 is 2.58 µM. Also, in data set [4], the CC50 was determined as 106 µM. Besides, the selectivity ratio in data set [5] was determined as 41.
For the compound `CCC[C@H]1C[C@H]2OC(=O)c3c(cc(OC)c(OC)c3OC(C)=O)[C@H]2O1`, the IC50 in [3] worked out at 0.77 µM. In addition, the half-maximal cytotoxic concentration (CC50) in data set [4] stood at 124 µM. Also, the selectivity ratio in [5] amounted to 161.
Take `CCN(CC)CCCC(C)Nc1ccnc2cc(Cl)ccc12` (configuration not stated): in [6], the inhibition entry was “inactive”. Besides, the Activity in data set [7] turned out to be 68.2%.
For `CCC[C@H]1C[C@H]2OC(=O)c3c(cc(O)c(O)c3OCc3cccc(C(F)(F)F)c3)[C@H]2O1`, in data set [2], half-maximal inhibition (IC50) was put at 13.6 µM.
The compound `CCC[C@H]1C[C@H]2OC(=O)c3c(cc(O)c(O)c3OCc3cc(C(F)(F)F)cc(C(F)(F)F)c3)[C@H]2O1` gave a half-maximal inhibitory concentration (IC50) in data set [2] of 11.9 µM.
`COc1cc2c(c(O)c1OC)C(=O)O[C@@H]1C[C@H](C[C@H](C)O)O[C@H]21`: the half-inhibitory concentration (IC50) in data set [3] came out at 11.7 µM. For the same compound, in data set [4], the CC50 was 262 µM. Besides, in data set [5], the selectivity ratio came to 22.
In the case of `CCC[C@H](O)C[C@H]1OC(=O)c2c(cc(OC)c(OC)c2O)[C@H]1OC`, the result in data set [8], in [13] and in [14] was inactive. For the same compound, the inhibition of growth at 10 µg/mL in data set [9], in [12] and in data set [15] was 0% each time. Also, the IC50 in data set [3] came out at 0.38 µM. The CC50 in [4] is 258 µM. Moreover, the Activity result in data set [10] was “Non-Toxic”; in [11] it was “Non-Toxic”; in [7], 51.1%. Besides, the outcome in data set [16] was Active. Also, in data set [5], the selectivity ratio amounted to 675. The compound further gave an inhibition in data set [17] of 48%.

Source of the values: ChEMBL document CHEMBL4831481, “Semisynthesis, Antiplasmodial Activity, and Mechanism of Action Studies of Isocoumarin Derivatives” (J Nat Prod, 2021).
